The values below are quoted from earlier work in US7122567B2, “Heterocyclic amide derivatives having glycogen phosphorylase inhibitory activity” (AstraZeneca AB, priority 2002, dated 2006).

For data set [1] the following is noted: conscious dogs, following a glucagon challenge.
For data set [2] the following is noted: db/db and ob/ob mice following treatment.

In the case of `CCN1C(C)=C(C(=O)OC(C)C)C(c2ccccc2Cl)C2=C1COC2=O` (centres unmarked) [Bay R 3401], in data set [1], the arterial plasma glucose result is recorded as “reduced significantly” and the hepatic glucose output result is listed as “reduced significantly”.

In the case of `O=C(N[C@@H](Cc1ccc(F)cc1)C(=O)N1CCC(O)CC1)c1cc2cc(Cl)ccc2[nH]1` [CP320626], in the data set with hepatocytes, the glucagon stimulated glycogenolysis entry was “reduce” and the glucose output result is on record as “reduce”. Further, in data set [2], the plasma glucose concentration result was “reduced, in a dose related manner”.

`CN(C)C(=O)[C@H](O)[C@H](Cc1ccccc1)NC(=O)c1cc2cc(Cl)ccc2[nH]1` [CP91149]: in the data set on hepatocytes, the glucagon stimulated glycogenolysis entry is reported as “reduce” and the glucose output entry is “reduce”. The plasma glucose concentration entry in data set [2] was “reduced, in a dose related manner”.
